Assay results as given in US20230158098A1, “COMPOSITION FOR PROMOTING ENERGY EXPENDITURE” (MORINAGA MILK INDUSTRY CO., LTD., priority 2017, published 2023).

Tested on: Male C57BL/6J mice
Experiment: Energy expenditure by indirect calorimetry, administration at rest 2
Assay type: in vivo
Conditions: mice fasted 1 hour, oral, hydrolysates 1.0 mg/g body weight, MKP peptide 0.4 μg/g body weight, randomized crossover, FIG. 3
Description: Male C57BL/6J mice as laboratory animals were divided into the following four groups: rest group, casein hydrolysate administration group, MKP peptide administration group, and whey protein hydrolysate administration group. The mice were fasted for 1 hour. Subsequently, a casein hydrolysate and a whey protein hydrolysate each in an amount of 1.0 mg/g body weight and a MKP peptide in an amount of 0.4 μg/g body weight were orally administered, and energy expenditure was measured. The number of mice used in the experiment was n=12 in each group, and a randomized crossover test was employed.
Incidentally, as the casein hydrolysate and the whey protein hydrolysate, those prepared in <1>, (1) to (2), above were used, and, as the MKP peptide, a synthetic peptide was purchased from Peptide Institute and used. Energy expenditure for 60 minutes after administration was determined.
As compared with the rest group, in all the casein hydrolysate administration group, MKP peptide administration group, and whey protein hydrolysate administration group, the level of energy expenditure was higher.

H-Met-Lys-Pro-OH [MKP peptide]
average energy expenditure for 60 minutes after administration compared with the rest group: higher
